Laboratory results taken from patent US6531603B1, “Polymorphic forms of 6-[4-(1-cyclohexyl-1H-tetrazol-5-yl)butoxy]-3,4-dihydro-2(1H)-quinolinone” (priority 2001, dated 2003).

What was measured:
[1] = bioavailability; format: in vivo; conditions: Form A as prepared by the procedures of the '479 patent
[2] = aqueous solubility of cilostazol polymorphic forms; format: physicochemical
[3] = stability of the crystalline form; format: physicochemical
[4] = solid state phase transformation of disturbed sample on heating by DSC; format: physicochemical; conditions: sample disturbed with scratching / stressed, DSC heating from 30° C. to approximately 200° C. at 10° C. per minute, followed by melt at about 160° C. (Form A)
Text: Characterization of Form A of cilostazol, Form B of cilostazol, and Form C of cilostazol was further completed using DSC thermograms, shown in FIGS. 3, 4, and 5, respectively, with DSC thermograms for combinations of Form A and Form B; Form B and Form C; and Forms A, B, and C are shown in FIGS. 6, 7, and 8 respectively. DSC data were generated using a Mettler-Toledo DSC 821^e (Columbus, Ohio) with a Julabo FT900 intercooler chiller (Julabo Company; Allentown, Pa.). In general, samples were analyzed in a vented, sealed aluminum pan. Because the endothermic peak may vary depending upon the rate of heating and the calibration and precision of the instrument, with the amount of peak variation dependent upon the heating rate used, all thermograms included herein were run under the same, consistent conditions: heating at 10° C. per minute under a nitrogen purge at 40 mL/minute. The resultant sample of Example 1A was disturbed with scratching, which caused the cilostazol sample to undergo a solid state phase transformation at approximately 119° C. followed by an endotherm of melt at approximately 160° C. (Form A) during heating by DSC from 30° C. to approximately 200° C. at 10° C. per minute. When the sample is stressed and reheated (as detailed in Example 2A), the sample undergoes a solid state phase transformation at approximately 147° C. followed by an endotherm of melt at about 160° C. […]

## O=C1CCc2cc(OCCCCc3nnnn3C3CCCCC3)ccc2N1 [Form A, 6-[4-(1-cyclohexyl-1H-tetrazol-5-yl)butoxy]-3,4-dihydro-2(1H)-quinolinone]
[1]
  bioavailability: low
[2]; Form A as prepared by the procedures of the '479 patent
  aqueous solubility: low

## O=C1CCc2cc(OCCCCc3nnnn3C3CCCCC3)ccc2N1 [Form B, 6-[4-(1-cyclohexyl-1H-tetrazol-5-yl)butoxy]-3,4-dihydro-2(1H)-quinolinone]
[3]
  stability of the polymorphic form: stable
[4]; listed as Example 1A
  solid state phase transformation temperature (to Form A): approximately 119 °C
[2]; inferred from lower melting point in DSC thermogram (FIG. 8), solubility itself not measured
  solubility relative to Form A: more soluble than Form A

## O=C1CCc2cc(OCCCCc3nnnn3C3CCCCC3)ccc2N1 [Form C, 6-[4-(1-cyclohexyl-1H-tetrazol-5-yl)butoxy]-3,4-dihydro-2(1H)-quinolinone]
[4]; listed as Example 2A
  solid state phase transformation temperature (to Form A): approximately 147 °C
